According to US20120283293A1, “Methods of neuroprotection involving Prostaglandin E2 EP4 (PGE2 EP4) receptor activation” (The Board of Trustees of the Leland Stanford Junior …, priority 2011, published 2012):

Tests used:
[1] = test system: Akt phosphorylation in BV-2 cells; test: phospho-Akt quantitative Western (Ser473) and ELISA (Thr308) in LPS-treated BV-2 cells; assay type: cell-based, murine
Procedure: Nuclear and cytoplasmic fractions of BV-2 cells were prepared at several time points after treatment (0-120 minutes) using the nuclear extract kit from Active Motif (Carlsbad, Calif.). Briefly, cells were washed, collected in ice-cold PBS in the presence of phosphatase inhibitors, and centrifuged at 300×g for 5 min at 4° C. Cell pellets were resuspended in hypotonic buffer, treated with detergent, and centrifuged at 14,000×g for 30 sec at 4° C. After collection of the cytoplasmic fraction, nuclei were solubilized for 30 min in lysis buffer containing protease inhibitors. Lysates were centrifuged at 14,000×g for 30 min at 4° C. and supernatants were collected for NF-κB studies. To prepare whole cell lysates for phospho-Akt and phospho-IKK studies, cells were washed in ice-cold PBS and lysed in 20 mM Tris-HCl, pH 7.5, 150 mM NaCl, 1 mM Na2EDTA, 1 mM EGTA, 1% Triton, 2.5 mM sodium pyrophosphate, 1 mM β-glycerophosphate, 1 mM orthovanadate, 1 μg/ml leupeptin and 1 mM PMSF. Lysates were sonicated for 5 seconds, centrifuged at 14,000×g for 10 min at 4° C. and supernatants were collected for phospho-Akt and phospho-IKK studies. All protein concentrations were determined using the Bradford protein assay.
Western blot analysis. […] Immunoreactivity was detected using either sheep anti-rabbit or sheep anti-mouse HRP-conjugated secondary antibody (Amersham Biosciences, Arlington Heights, Ill.), followed by enhanced chemiluminescence (Pierce). Autoradiographic signals were quantified using NIH Image. […]
Measurements of phospho-Akt and total Akt were determined using the PathScan phospho-Akt (Thr308) and total Akt1 ELISA kits (Cell Signaling Technology, Danvers, Mass.). […]
In addition to its known Gas coupling to PKA, the EP4 receptor can signal via PI3K and Akt via a Gαi subunit (Fujino et al., 2002; Fujino & Regan, 2006). To further investigate whether EP4 signaling modulates PI3K/Akt pathway activity in LPS-stimulated BV-2 cells, levels of phospho-Akt were measured using quantitative Western analysis (phosphorylated Ser473 Akt; FIG. 3C) and ELISA (phosphorylated Thr308 Akt; FIG. 3D). […]

[2] = test system: BV-2 cells; test: Griess assay of nitrite production (NOS activity) in LPS-treated BV-2 cells; assay type: cell-based, murine
Procedure: Nitric oxide synthase (NOS) activity was measured using the Griess assay to measure nitrite production (Promega, Madison, Wis.). BV-2 cells were plated at 5×10^4 cells/well in 24-well plates, allowed to reach 90% confluence, and incubated +/−LPS (10 ng/ml)+/−AE1-329 (1 nM-1 μM) or vehicle for 24 h. […] cell culture medium and nitrite standards ([…]) were transferred to a 96-well plate and mixed with 50 μl sulphanilamide solution and 50 μl NED solution. After a 10 min incubation at room temperature, absorbance was read at 530 nm on a SpectraMax M5 plate reader (Molecular Devices, Sunnyvale, Calif.). Experiments were repeated in triplicate.
Inflammatory stimuli such as LPS can activate microglia through the CD14/TLR4 receptor complex and induce the expression of pro-inflammatory enzymes and cytokines (Fassbender et al., 2004; Walter et al., 2007). LPS-induced inflammatory responses were tested in the absence and presence of pharmacologic activation of EP4 receptor with the selective EP4 agonist AE1-329. BV-2 cells were treated with LPS (10 ng/ml) in the presence or absence of the selective EP4 agonist AE1-329 (1 μM) for 6 h, and pro-inflammatory gene expression was measured using qPCR (see FIG. 2). […] In FIG. 2D, EP4 regulation of iNOS activity was investigated.

## COCc1ccccc1CC[C@H](O)/C=C/[C@H]1[C@H](O)CC(=O)[C@@H]1SCCCSCC(=O)O [AE1-329]
[1]; BV-2 cells, in the absence of LPS
  Akt phosphorylation, agonist alone: did not alter Akt phosphorylation
[1]; LPS (100 ng/ml) treated BV-2 cells, AE1-329 100 nM, over 60 minutes
  phospho-Ser473 Akt signal (quantitative Western): significant attenuation
[1]; LPS-treated BV-2 cells, AE1-329 100 nM, 60 minutes
  phospho-Thr308 Akt (ELISA, p-Akt/Akt): significant decrease
[2]; BV-2 cells, 1, 10, 100 and 1000 nM AE1-329, 24 hours
  LPS-induced NO production, dose response: dose-dependently reduced NO production
[2]; BV-2 cells, LPS 10 ng/ml + 10 nM AE1-329, 24 hours (LPS alone 21.76 μM)
  nitrite concentration: 6.57 µM
[2]; BV-2 cells, LPS 10 ng/ml, 10 nM AE1-329, 24 hours
  decrease of LPS-induced NO production (nitrite): 68.9%
